# Measurements published in patent publication US12679843B2, “Pyrrolopyrimidine amines as complement inhibitors” (BioCryst Pharmaceuticals, Inc., priority 2020, dated 2026).
# Molecular target: Factor D (Homo sapiens, UniProt P00746)
# Assay: Factor D esterolytic assay (Z-Lys-SBzl thioester substrate, DTNB, 405 nm)
# Format: biochemical
# Conditions: substrate Z-Lys-SBzl 1.29 mM, 100 mM HEPES, 500 mM NaCl, pH 7.5, 10% DMSO, tested a minimum of three times
# How it was run: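 Human Factor D hydrolysis of Z-Lys-SBzl (1.29 mM) monitored at 405 nm via DTNB thiol detection for 600 s, 690 nm background subtracted. Buffer 100 mM HEPES, 500 mM NaCl, pH 7.5, 10% DMSO; substrate added immediately or after room-temperature preincubation. IC50 from percent inhibition of rate, at least three tests.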
# Chain of Factor D (P00746 26-253): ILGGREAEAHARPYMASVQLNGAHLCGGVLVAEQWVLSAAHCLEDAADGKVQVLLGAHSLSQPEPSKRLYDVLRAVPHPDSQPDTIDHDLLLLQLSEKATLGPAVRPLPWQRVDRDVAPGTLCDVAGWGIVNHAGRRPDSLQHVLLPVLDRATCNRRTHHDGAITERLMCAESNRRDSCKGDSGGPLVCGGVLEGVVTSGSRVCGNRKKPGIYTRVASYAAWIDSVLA
row,Compound,IC50 [nM]
1,"Cc1cc(F)c(Br)nc1NC(=O)[C@@H]1C[C@H]2C[C@H]2N1C(=O)Cn1c2ncnc(N)c2c2cc(C(F)(F)F)cc(C)c21 [Compound 322c, (1R,3S,5R)-2-(2-(4-amino-8-methyl-6-(trifluoromethyl)-9H-pyrimido[4,5-b]indol-9-yl)acetyl)-N-(6-bromo-5-fluoro-3-methylpyridin-2-yl)-2-azabicyclo[3.1.0]hexane-3-carboxamide]",< 100
2,"Nc1c(C(=O)O)cnc2c1ccn2CC(=O)N1[C@@H]2C[C@@H]2C[C@H]1C(=O)Nc1cccc(Br)n1 [Compound 155f, 4-amino-1-(2-((1R,3S,5R)-3-((6-bromopyridin-2-yl)carbamoyl)-2-azabicyclo[3.1.0]hexan-2-yl)-2-oxoethyl)-1H-pyrrolo[2,3-b]pyridine-5-carboxylic acid]",> 1000
3,"Cc1cc(C(F)(F)F)cc2c3c(N)ncnc3n(CC(=O)N3C[C@H](F)C[C@H]3C(=O)Nc3cncc(Cl)n3)c12 [Compound 325c, (2S,4R)-1-(2-(4-amino-8-methyl-6-(trifluoromethyl)-9H-pyrimido[4,5-b]indol-9-yl)acetyl)-N-(6-chloropyrazin-2-yl)-4-fluoropyrrolidine-2-carboxamide]",< 100
4,"Nc1ncnc2c1c1ccc(-c3ccccc3)cc1n2CC(=O)N1[C@@H]2C[C@@H]2C[C@H]1C(=O)Nc1cccc(Br)n1 [Compound 227c, (1R,3S,5R)-2-(2-(4-amino-7-phenyl-9H-pyrimido[4,5-b]indol-9-yl)acetyl)-N-(6-bromopyridin-2-yl)-2-azabicyclo[3.1.0]hexane-3-carboxamide]",< 100
5,"Cc1ncc(-c2cc(C)c3c(c2)c2c(N)ncnc2n3CC(=O)N2[C@H](C(=O)Nc3cccc(Cl)n3)C[C@@]3(C)C[C@@H]23)cn1 [Compound 315a, (1R,3S,5R)-2-(2-(4-amino-8-methyl-6-(2-methylpyrimidin-5-yl)-9H-pyrimido[4,5-b]indol-9-yl)acetyl)-N-(6-chloropyridin-2-yl)-5-methyl-2-azabicyclo[3.1.0]hexane-3-carboxamide]",< 100
6,"Nc1ccnc2c1ccn2CC(=O)N1[C@@H]2C[C@@H]2C[C@H]1C(=O)Nc1cccc(Br)n1 [Compound 83d, (1R,3S,5R)-2-(2-(4-amino-1H-pyrrolo[2,3-b]pyridin-1-yl)acetyl)-N-(6-bromopyridin-2-yl)-2-azabicyclo[3.1.0]hexane-3-carboxamide]",100 to 1000
7,"Cc1cc(-c2ccccn2)cc2c3c(N)ncnc3n(CC(=O)N3[C@H](C(=O)Nc4cccc(Br)n4)C[C@@]4(C)C[C@@H]34)c12 [Compound 378c, (1R,3S,5R)-2-(2-(4-amino-8-methyl-6-(pyridin-2-yl)-9H-pyrimido[4,5-b]indol-9-yl)acetyl)-N-(6-bromopyridin-2-yl)-5-methyl-2-azabicyclo[3.1.0]hexane-3-carboxamide]",< 100
8,"Cc1ncc(NC(=O)[C@@H]2C[C@H]3C[C@H]3N2C(=O)Cn2c3ncnc(N)c3c3cc(C(F)(F)F)cc(C)c32)nc1Br [Compound 313b, (1R,3S,5R)-2-(2-(4-amino-8-methyl-6-(trifluoromethyl)-9H-pyrimido[4,5-b]indol-9-yl)acetyl)-N-(6-bromo-5-methylpyrazin-2-yl)-2-azabicyclo[3.1.0]hexane-3-carboxamide]",< 100

# Other lines, results leading:
row,IC50 [nM],Compound
1,< 100,"Nc1ncnc2c1ccn2CC(=O)N1C[C@H](F)C[C@H]1C(=O)NCc1cccc(Cl)c1F [Compound 64a, (2S,4R)-1-(2-(4-amino-7H-pyrrolo[2,3-d]pyrimidin-7-yl)acetyl)-N-(3-chloro-2-fluorobenzyl)-4-fluoropyrrolidine-2-carboxamide]"
2,100 to 1000,"CCOC(=O)c1cccc2c1c1c(N)ncnc1n2CC(=O)N1[C@@H]2C[C@@H]2C[C@H]1C(=O)Nc1cccc(Br)n1 [Compound 46g, ethyl 4-amino-9-(2-((1R,3S,5R)-3-((6-bromopyridin-2-yl)carbamoyl)-2-azabicyclo[3.1.0]hexan-2-yl)-2-oxoethyl)-9H-pyrimido[4,5-b]indole-5-carboxylate]"
3,100 to 1000,"Cc1cc(C(F)(F)F)cc2c3c(N)ncnc3n(CC(=O)N3[C@@H]4C[C@@H]4C[C@H]3C(=O)Nc3nc(Br)ccc3F)c12 [Compound 317c, (1R,3S,5R)-2-(2-(4-amino-8-methyl-6-(trifluoromethyl)-9H-pyrimido[4,5-b]indol-9-yl)acetyl)-N-(6-bromo-3-fluoropyridin-2-yl)-2-azabicyclo[3.1.0]hexane-3-carboxamide]"
4,< 100,"Cc1cc(F)c(Br)nc1NC(=O)[C@@H]1C[C@@H](F)CN1C(=O)Cn1c2ncnc(N)c2c2cc(C(F)(F)F)cc(C)c21 [Compound 366c, (2S,4R)-1-(2-(4-amino-8-methyl-6-(trifluoromethyl)-9H-pyrimido[4,5-b]indol-9-yl)acetyl)-N-(6-bromo-5-fluoro-3-methylpyridin-2-yl)-4-fluoropyrrolidine-2-carboxamide]"
5,100 to 1000,"Nc1ncnc2c1c1cc(C(F)(F)F)ccc1n2CC(=O)N1CC2(CC2)C[C@H]1C(=O)Nc1cccc(Br)n1 [Compound 53d, (S)-5-(2-(4-amino-6-(trifluoromethyl)-9H-pyrimido[4,5-b]indol-9-yl)acetyl)-N-(6-bromopyridin-2-yl)-5-azaspiro[2.4]heptane-6-carboxamide]"
6,< 100,"Nc1ncnc2c1c1cc(CO)ccc1n2CC(=O)N1[C@@H]2C[C@@H]2C[C@H]1C(=O)Nc1cccc(Br)n1 [Compound 195e, (1R,3S,5R)-2-(2-(4-amino-6-(hydroxymethyl)-9H-pyrimido[4,5-b]indol-9-yl)acetyl)-N-(6-bromopyridin-2-yl)-2-azabicyclo[3.1.0]hexane-3-carboxamide]"
7,< 100,"Nc1ncnc2c1c1ccccc1n2CC(=O)N1C[C@H](F)C[C@H]1C(=O)NCc1cccc(Cl)c1F [Compound 20a, (2S,4R)-1-(2-(4-amino-9H-pyrimido[4,5-b]indol-9-yl)acetyl)-N-(3-chloro-2-fluorobenzyl)-4-fluoropyrrolidine-2-carboxamide]"
8,< 100,"Nc1ccc2c(c1)c1c(N)ncnc1n2CC(=O)N1[C@@H]2C[C@@H]2C[C@H]1C(=O)Nc1cccc(Br)n1 [Compound 61a, (1R,3S,5R)—N-(6-bromopyridin-2-yl)-2-(2-(4,6-diamino-9H-pyrimido[4,5-b]indol-9-yl)acetyl)-2-azabicyclo[3.1.0]hexane-3-carboxamide]"
9,> 1000,"Nc1ncnc2c1ncn2CC(=O)N1[C@@H]2CC[C@@H](C2)[C@H]1C(=O)NCc1cccc(Cl)c1F [Compound 124b, (1R,3S,4S)-2-(2-(6-amino-9H-purin-9-yl)acetyl)-N-(3-chloro-2-fluorobenzyl)-2-azabicyclo[2.2.1]heptane-3-carboxamide]"
10,< 100,"Nc1ccc2c3c(N)ncnc3n(CC(=O)N3[C@@H]4C[C@@H]4C[C@H]3C(=O)Nc3cccc(Br)n3)c2c1 [Compound 18a, (1R,3S,5R)—N-(6-bromopyridin-2-yl)-2-(2-(4,7-diamino-9H-pyrimido[4,5-b]indol-9-yl)acetyl)-2-azabicyclo[3.1.0]hexane-3-carboxamide]"
11,100 to 1000,"Nc1ncnc2c1ccn2CC(=O)N1C[C@H](F)C[C@H]1C(=O)Nc1cccc(Br)n1 [Compound 5e, (2S,4R)-1-(2-(4-amino-7H-pyrrolo[2,3-d]pyrimidin-7-yl)acetyl)-N-(6-bromopyridin-2-yl)-4-fluoropyrrolidine-2-carboxamide]"
